These results are taken from patent US20050014144A1, “Methods” (priority 2001, published 2005).

The data set deals with P. aphanidermatum cytochrome b gene F129 and L129 alleles. As to the kind of experiment: ARMS/Scorpion F129L SNP detection assay (Ct of allele selective primers on plasmid DNA templates). On the set-up: species or system Pythium aphanidermatum. The following applies: for ΔCt: between C and A plasmid template; for ΔCt / A Ct / C Ct: 2×10^6 molecules/ul; for A Ct: mutant (L129) plasmid template; for NTC amplification: no template (water only) control; for C Ct: wild type (F129) plasmid template; for Observed A:C ratio: plasmid templates 2×10^6 molecules/ul. On the procedure: In all ARMS/Scorpion™ F129L SNP detection assays AmpliTaq Gold enzyme (Applied Biosystems) was included in the reaction mixes at 1 unit/25 μl reaction. The reaction mix also contained 1× buffer (10 mM Tris-HCl (pH8.3), 50 mM KCl, 3.5 mM MgCl2, 0.01% gelatine) and 100 μM dNTPs (Amersham Pharmacia Biotech). Amplifications were performed in an ABI Prism 7700 instrument for continuous fluorescence monitoring. A preliminary cycle of 95° C. for 10 minutes was performed followed by 50 cycles of 95° C. for 15 sec and 60° C. for 45 sec. Fluorescence was monitored during the annealing/extension stage throughout all cycles.
Primers were first validated for use in such analyses by using plasmid DNA, at various concentrations, as template. This was performed in order to check the specificity and sensitivity of the primer designs. Partial wild type cytochrome b gene sequence and the corresponding tract containing the F129L mutation amplified from two P. aphanidermatum isolates were cloned into the TA pCR2.1 vector (Invitrogen) as described previously in example 2. 150 ul of the bacterial culture, from the 10 transformants from each cloning event picked for Wizard Plus plasmid DNA Preparations (Promega) (see example 2), was saved prior to carrying out these preparations and stored at 4° C. Following sequence analysis wild type and mutant plasmid DNA samples that contained no sequence differences from the consensus sequence were noted. The bacterial culture from which these wild type and mutant plasmid DNA sequences originated was picked for plasmid DNA maxipreps (Qiagen) following the manufacturers protocol. The resulting plasmid DNA was quantified and diluted to a concentration of 1 ug/ul (2×10^11 molecules/ul) using sterile double distilled H2O.
The wild type and mutant plasmid DNA cassettes were diluted further to a concentration of 10 pg/ul (or 2×10^6 molecules/ul) in double distilled H2O and used as template to validate the specificity of the ARMS primers. Each ARMS primer was tested on wild type and mutant template as well as a no template (water only) control, under the PCR conditions described above. The Pt129-1 and Pt129-4 primers were preferred to the Pt129-2 and Pt129-3 and the Pt129-5 and Pt129-6 primers as duplicate PCRs gave more consistent results and were more specific. Wild type ARMS primer Pt129-1 gave a window of 15.27 cycles before amplification occurred on the inappropriate (mutant) template (FIG. 7). Mutant ARMS primer Pt129-4 gave a window of 16.96 cycles before amplification occurred on the inappropriate (wild type) template (FIG. 8).
Following the selection of a suitable ARMS primer for the detection of the point mutation the assay was validated further, so that its sensitivity of detection was fully understood before it was used to test biological samples for the presence of the L129 mutation. The first validation step was to establish if the window of specificity varied for the chosen ARMS primers over a 6 orders of magnitude range of wild type and mutant template DNA concentration. The wild type and mutant plasmid DNA cassettes described previously were diluted in Bovine Serum Albumin (BSA) (Fraction V Powder minimum 96%, Sigma A9647) at a concentration of 1 mg/ml through a 10 fold dilution series. The template concentrations covered the range 2×10^8 molecules/ul to 2×10^2 molecules/ul. Both plasmid DNA cassettes and a no template (water only) control were tested in the ARMS/Scorpion assay using primers Pt129-1, Pt129-4 and Pt129-S, as described above.
In all ARMS/Scorpion™ F129L SNP detection assays AmpliTaq Gold enzyme (Perkin-Elmer/ABI) was included in the reaction mixes at 1 unit/25 μl reaction. The reaction mix also contained 1× buffer (10 mM Tris-HCl (pH8.3), 50 mM KCl, 3.5 mM MgCl2, 0.01% gelatine) and 100 μM dNTPs (Amersham Pharmacia Biotech). Amplifications were performed in an ABI Prism 7700 instrument for continuous fluorescence monitoring. […]

With “Pt129-A1 (DNA ACCCCAAGGTAATACATAACCCAAT; chemistry not given here)”, the ΔCt was 5.79, the “A Ct” value was 26.54, the NTC amplification result is “none” and the “C Ct” value is 32.33.

As to “Pt129-A2 (DNA ACCCCAAGGTAATACATAACCCACT; chemistry not given here)”, the ΔCt is 13.14, the “A Ct” value was 20.87, the NTC amplification entry is “none” and the “C Ct” value worked out at 34.01.

In the case of “Pt129-A3 (DNA ACCCCAAGGTAATACATAACCCAGT; chemistry not given here)”, the ΔCt was 8.91, the “A Ct” value turned out to be 31.29, the NTC amplification result is on record as “none” and the “C Ct” value is reported as 40.2.

With “Pt129-A4 (DNA ACCCCAAGGTAATACATAACCCTTT; chemistry not given here)”, the ΔCt came to 14.38, the “A Ct” value turned out to be 24.42, the NTC amplification result is given as “none” and the “C Ct” value was 38.8.

As for “Pt129-A5 (DNA ACCCCAAGGTAATACATAACCCCTT; chemistry not given here)”, the ΔCt is reported as 11.09, the “A Ct” value turned out to be 21.42, the NTC amplification entry is on record as “none” and the “C Ct” value is 32.51.

Turning to “Pt129-A6 (DNA ACCCCAAGGTAATACATAACCCGTT; chemistry not given here)”, the ΔCt worked out at 12.17, the “A Ct” value is 21.3, the NTC amplification result is “none” and the “C Ct” value was found to be 33.47.

For the substance “Pt129-A7 (DNA ACCCCAAGGTAATACATAACTCACT; chemistry not given here)”, the ΔCt is reported as 14.05, the “A Ct” value was determined as 36.33, the NTC amplification entry is given as “none” and the “C Ct” value came to 22.28.

For the substance “Pt129-A8 (DNA ACCCCAAGGTAATACATAACACACT; chemistry not given here)”, the ΔCt stood at 13.76, the “A Ct” value turned out to be 35.87, the NTC amplification result is “none” and the “C Ct” value is 22.11.

Take “Pt129-A9 (DNA ACCCCAAGGTAATACATAACGCACT; chemistry not given here)”: the ΔCt worked out at 14.96, the “A Ct” value was 37.1, the NTC amplification result is “none” and the “C Ct” value is recorded as 22.14.

For the substance “Pt129-A10 (DNA ACCCCAAGGTAATACATAACTCCTT; chemistry not given here)”, the ΔCt is 4.2, the “A Ct” value was determined as 31.4, the NTC amplification entry is “none” and the “C Ct” value is 27.2.

Regarding “Pt129-A11 (DNA ACCCCAAGGTAATACATAACACCTT; chemistry not given here)”, the ΔCt came out at 6.4, the “A Ct” value came to 31.25, the NTC amplification result is “none” and the “C Ct” value is listed as 24.85.

For the substance “Pt129-A12 (DNA ACCCCAAGGTAATACATAACGCCTT; chemistry not given here)”, the ΔCt is listed as 2.7, the “A Ct” value came out at 30.16, the NTC amplification result is given as “none” and the “C Ct” value is on record as 27.46.

On to “Pt129-A13 (DNA ACCCCAAGGTAATACATAACTCGTT; chemistry not given here)”, for which the ΔCt was found to be 18.8, the “A Ct” value was found to be 41.99, the NTC amplification result is “none” and the “C Ct” value turned out to be 23.19.

As to “Pt129-A15 (DNA ACCCCAAGGTAATACATAACGCGTT; chemistry not given here)”, the “A Ct” value is reported as “no C”, the NTC amplification result is “none”, the “Observed A:C ratio” value is reported as “all A” and the “C Ct” value amounted to 30.05.

As for “Pt129-C1 (DNA ACCCCAAGGTAATACATAACCCAAG; chemistry not given here)”, the ΔCt is given as 16.81, the “A Ct” value worked out at 42.6, the NTC amplification entry was “none” and the “C Ct” value is reported as 25.79.

With “Pt129-C2 (DNA ACCCCAAGGTAATACATAACCCACG; chemistry not given here)”, the ΔCt came out at 23.15, the “A Ct” value was found to be 43.57, the NTC amplification result is reported as “none” and the “C Ct” value came to 20.42.

Consider “Pt129-C3 (DNA ACCCCAAGGTAATACATAACCCAGG; chemistry not given here)”, for which the “A Ct” value is “no A”, the NTC amplification result is “none”, the “Observed A:C ratio” value is reported as “all C” and the “C Ct” value was determined as 29.7.

For the substance “Pt129-C5 (DNA ACCCCAAGGTAATACATAACCCCTG; chemistry not given here)”, the ΔCt stood at 22.26, the “A Ct” value came to 42.36, the NTC amplification result is “none” and the “C Ct” value was 20.1.

“Pt129-C6 (DNA ACCCCAAGGTAATACATAACCCGTG; chemistry not given here)”: the ΔCt is reported as 24.54, the “A Ct” value is listed as 44.17, the NTC amplification entry is on record as “none” and the “C Ct” value worked out at 19.63.

Take “Pt129-S6 (DNA TTGACCCCAAGGTAATACATAACTC; chemistry not given here)”: the “A Ct” value is reported as 20.84, the NTC amplification entry is listed as “none” and the “C Ct” value was determined as 20.43.
